Assay results from paper PMC11770821, “Pharmacokinetics and pharmacodynamics of an innovative psychedelic N,N-dimethyltryptamine/harmine formulation in healthy participants: a randomized controlled trial” (International Journal of Neuropsychopharmacology, 2025).

Key:
healthy male volunteers [1] = assay: Undesired drug effects / adverse events questionnaire (y/n and VAS 0–100); assay type: in vivo, human
Experimental: (§1) The participants were monitored with regard to AEs throughout the experiment by the study physician, including questionnaire-based assessments (VAS, 0-100 or y/n) of physical and mental discomfort, breathing difficulties, racing heartbeat, chest or abdominal pains, unpleasant body sensations/muscle pain, headache, nausea, vomiting, and fainting at baseline (−105), 0, 30, 60, 120, 240, and 300 minutes after DMT/placebo administration. Vital signs (systolic/diastolic blood pressure [DBP], heart rate, body temperature [BT]) were assessed using a semiautomatic blood pressure and oral temperature recording device throughout the study at baseline (−45), 0, 30, 120, 150, 210, and 270 minutes after the first DMT/placebo administration.

healthy male volunteers [2] = details: in vivo
Experimental: as §1

[3] = 180 min after first intranasal DMT/placebo administration
[4] = 240 min after first intranasal DMT/placebo administration
[5] = 300 min after first intranasal DMT/placebo administration
[6] = −105 min (baseline) relative to first intranasal DMT/placebo administration

COc1ccc2c(c1)[nH]c1c(C)nccc12 [Harmine, harmine]
Heart racing, mean intensity [0–100] (SD) (healthy male volunteers [1]; [3]): 1 (0) | Heart racing, number of participants reporting (healthy male volunteers [1]; [3]): 1 | Muscle ache, mean intensity [0–100] (SD) (healthy male volunteers [1]; [3]): 16 (14) | Muscle ache, number of participants reporting (healthy male volunteers [1]; [3]): 4 | Nausea, mean intensity [0–100] (SD) (healthy male volunteers [1]; [3]): 1 (0) | Nausea, number of participants reporting (healthy male volunteers [1]; [3]): 1 | Psychological distress, mean intensity [0–100] (SD) (healthy male volunteers [1]; [3]): 9 (0) | Psychological distress, number of participants reporting (healthy male volunteers [1]; [3]): 1 | Somatic distress, mean intensity [0–100] (SD) (healthy male volunteers [1]; [3]): 13 (3) | Somatic distress, number of participants reporting (healthy male volunteers [1]; [3]): 4 | Stomach ache, mean intensity [0–100] (SD) (healthy male volunteers [1]; [3]): 0 (0) | Stomach ache, number of participants reporting (healthy male volunteers [1]; [3]): 0 | Vomiting, mean intensity [0–100] (SD) (healthy male volunteers [1]; [3]): 0 (0) | Vomiting, number of participants reporting (healthy male volunteers [1]; [3]): 0 | Breathing difficulty, mean intensity [0–100] (SD) (healthy male volunteers [1]; [4]): 6 (0) | Breathing difficulty, number of participants reporting (healthy male volunteers [1]; [4]): 1 | Chest pain, mean intensity [0–100] (SD) (healthy male volunteers [1]; [4]): 1 (0) | Chest pain, number of participants reporting (healthy male volunteers [1]; [4]): 1 | Fainting, mean intensity [0–100] (SD) (healthy male volunteers [1]; [4]): 0 (0) | Fainting, number of participants reporting (healthy male volunteers [1]; [4]): 0 | Head ache, mean intensity [0–100] (SD) (healthy male volunteers [1]; [4]): 27 (0) | Head ache, number of participants reporting (healthy male volunteers [1]; [4]): 1 | Heart racing, mean intensity [0–100] (SD) (healthy male volunteers [1]; [4]): 3 (0) | Heart racing, number of participants reporting (healthy male volunteers [1]; [4]): 1 | Muscle ache, mean intensity [0–100] (SD) (healthy male volunteers [1]; [4]): 21 (5) | Muscle ache, number of participants reporting (healthy male volunteers [1]; [4]): 3 | Nausea, mean intensity [0–100] (SD) (healthy male volunteers [1]; [4]): 2 (0) | Nausea, number of participants reporting (healthy male volunteers [1]; [4]): 1 | Psychological distress, mean intensity [0–100] (SD) (healthy male volunteers [1]; [4]): 3 (1) | Psychological distress, number of participants reporting (healthy male volunteers [1]; [4]): 2 | Somatic distress, mean intensity [0–100] (SD) (healthy male volunteers [1]; [4]): 16 (12) | Somatic distress, number of participants reporting (healthy male volunteers [1]; [4]): 4 | Stomach ache, mean intensity [0–100] (SD) (healthy male volunteers [1]; [4]): 32 (44) | Stomach ache, number of participants reporting (healthy male volunteers [1]; [4]): 2 | Vomiting, mean intensity [0–100] (SD) (healthy male volunteers [1]; [4]): 0 (0) | Vomiting, number of participants reporting (healthy male volunteers [1]; [4]): 0 | Breathing difficulty, mean intensity [0–100] (SD) (healthy male volunteers [1]; [5]): 3 (0) | Breathing difficulty, number of participants reporting (healthy male volunteers [1]; [5]): 1 | Chest pain, mean intensity [0–100] (SD) (healthy male volunteers [1]; [5]): 0 (0) | Chest pain, number of participants reporting (healthy male volunteers [1]; [5]): 0 | Fainting, mean intensity [0–100] (SD) (healthy male volunteers [1]; [5]): 0 (0) | Fainting, number of participants reporting (healthy male volunteers [1]; [5]): 0 | Head ache, mean intensity [0–100] (SD) (healthy male volunteers [1]; [5]): 0 (0) | Head ache, number of participants reporting (healthy male volunteers [1]; [5]): 0 | Heart racing, mean intensity [0–100] (SD) (healthy male volunteers [1]; [5]): 49 (0) | Heart racing, number of participants reporting (healthy male volunteers [1]; [5]): 1 | Muscle ache, mean intensity [0–100] (SD) (healthy male volunteers [1]; [5]): 9 (11) | Muscle ache, number of participants reporting (healthy male volunteers [1]; [5]): 2 | Nausea, mean intensity [0–100] (SD) (healthy male volunteers [1]; [5]): 2 (1) | Nausea, number of participants reporting (healthy male volunteers [1]; [5]): 2 | Psychological distress, mean intensity [0–100] (SD) (healthy male volunteers [1]; [5]): 70 (0) | Psychological distress, number of participants reporting (healthy male volunteers [1]; [5]): 1 | Somatic distress, mean intensity [0–100] (SD) (healthy male volunteers [1]; [5]): 12 (5) | Somatic distress, number of participants reporting (healthy male volunteers [1]; [5]): 3 | Stomach ache, mean intensity [0–100] (SD) (healthy male volunteers [1]; [5]): 2 (0) | Stomach ache, number of participants reporting (healthy male volunteers [1]; [5]): 1 | Vomiting, mean intensity [0–100] (SD) (healthy male volunteers [1]; [5]): 0 (0) | Vomiting, number of participants reporting (healthy male volunteers [1]; [5]): 0 | overall safety and tolerability of drug-induced AEs (healthy male volunteers [1]; in vivo): mild and well tolerated | Breathing difficulty, mean intensity [0–100] (SD) (healthy male volunteers [1]; [6]): 12 (15) | Breathing difficulty, number of participants reporting (healthy male volunteers [1]; [6]): 2 | Chest pain, mean intensity [0–100] (SD) (healthy male volunteers [1]; [6]): 0 (0) | Chest pain, number of participants reporting (healthy male volunteers [1]; [6]): 0 | Fainting, mean intensity [0–100] (SD) (healthy male volunteers [1]; [6]): 0 (0) | Fainting, number of participants reporting (healthy male volunteers [1]; [6]): 0 | Head ache, mean intensity [0–100] (SD) (healthy male volunteers [1]; [6]): 8 (7) | Head ache, number of participants reporting (healthy male volunteers [1]; [6]): 3 | Heart racing, mean intensity [0–100] (SD) (healthy male volunteers [1]; [6]): 9 (6) | Heart racing, number of participants reporting (healthy male volunteers [1]; [6]): 3 | Muscle ache, mean intensity [0–100] (SD) (healthy male volunteers [1]; [6]): 11 (9) | Muscle ache, number of participants reporting (healthy male volunteers [1]; [6]): 5 | Nausea, mean intensity [0–100] (SD) (healthy male volunteers [1]; [6]): 6 (0) | Nausea, number of participants reporting (healthy male volunteers [1]; [6]): 1 | Psychological distress, mean intensity [0–100] (SD) (healthy male volunteers [1]; [6]): 13 (8) | Psychological distress, number of participants reporting (healthy male volunteers [1]; [6]): 4 | Somatic distress, mean intensity [0–100] (SD) (healthy male volunteers [1]; [6]): 17 (12) | Somatic distress, number of participants reporting (healthy male volunteers [1]; [6]): 7 | Stomach ache, mean intensity [0–100] (SD) (healthy male volunteers [1]; [6]): 12 (15) | Stomach ache, number of participants reporting (healthy male volunteers [1]; [6]): 2 | Vomiting, mean intensity [0–100] (SD) (healthy male volunteers [1]; [6]): 0 (0) | Vomiting, number of participants reporting (healthy male volunteers [1]; [6]): 0 | change of cardiovascular parameters (healthy male volunteers [2]): no relevant changes
